US11161854B2, “Indazolyl-spiro[2.2]pentane-carbonitrile derivatives as LRRK2 inhibitors, pharmaceutical compositions, and uses thereof” (Merck Sharp & Dohme Corp., priority 2017, dated 2021)

Biological target: GST-tagged truncated human mutant G2019S LRRK2 (Homo sapiens (Human), UniProt Q5S007, G2019S)
Assay: LRRK2 G2019S Km ATP LanthaScreen Assay
Type: biochemical
Details: 134 μM ATP (Km ATP); fluorescein-labeled LRRKtide substrate; mean IC50 values

Chain of GST-tagged truncated human mutant G2019S LRRK2 (Q5S007 970-2527 G2019S): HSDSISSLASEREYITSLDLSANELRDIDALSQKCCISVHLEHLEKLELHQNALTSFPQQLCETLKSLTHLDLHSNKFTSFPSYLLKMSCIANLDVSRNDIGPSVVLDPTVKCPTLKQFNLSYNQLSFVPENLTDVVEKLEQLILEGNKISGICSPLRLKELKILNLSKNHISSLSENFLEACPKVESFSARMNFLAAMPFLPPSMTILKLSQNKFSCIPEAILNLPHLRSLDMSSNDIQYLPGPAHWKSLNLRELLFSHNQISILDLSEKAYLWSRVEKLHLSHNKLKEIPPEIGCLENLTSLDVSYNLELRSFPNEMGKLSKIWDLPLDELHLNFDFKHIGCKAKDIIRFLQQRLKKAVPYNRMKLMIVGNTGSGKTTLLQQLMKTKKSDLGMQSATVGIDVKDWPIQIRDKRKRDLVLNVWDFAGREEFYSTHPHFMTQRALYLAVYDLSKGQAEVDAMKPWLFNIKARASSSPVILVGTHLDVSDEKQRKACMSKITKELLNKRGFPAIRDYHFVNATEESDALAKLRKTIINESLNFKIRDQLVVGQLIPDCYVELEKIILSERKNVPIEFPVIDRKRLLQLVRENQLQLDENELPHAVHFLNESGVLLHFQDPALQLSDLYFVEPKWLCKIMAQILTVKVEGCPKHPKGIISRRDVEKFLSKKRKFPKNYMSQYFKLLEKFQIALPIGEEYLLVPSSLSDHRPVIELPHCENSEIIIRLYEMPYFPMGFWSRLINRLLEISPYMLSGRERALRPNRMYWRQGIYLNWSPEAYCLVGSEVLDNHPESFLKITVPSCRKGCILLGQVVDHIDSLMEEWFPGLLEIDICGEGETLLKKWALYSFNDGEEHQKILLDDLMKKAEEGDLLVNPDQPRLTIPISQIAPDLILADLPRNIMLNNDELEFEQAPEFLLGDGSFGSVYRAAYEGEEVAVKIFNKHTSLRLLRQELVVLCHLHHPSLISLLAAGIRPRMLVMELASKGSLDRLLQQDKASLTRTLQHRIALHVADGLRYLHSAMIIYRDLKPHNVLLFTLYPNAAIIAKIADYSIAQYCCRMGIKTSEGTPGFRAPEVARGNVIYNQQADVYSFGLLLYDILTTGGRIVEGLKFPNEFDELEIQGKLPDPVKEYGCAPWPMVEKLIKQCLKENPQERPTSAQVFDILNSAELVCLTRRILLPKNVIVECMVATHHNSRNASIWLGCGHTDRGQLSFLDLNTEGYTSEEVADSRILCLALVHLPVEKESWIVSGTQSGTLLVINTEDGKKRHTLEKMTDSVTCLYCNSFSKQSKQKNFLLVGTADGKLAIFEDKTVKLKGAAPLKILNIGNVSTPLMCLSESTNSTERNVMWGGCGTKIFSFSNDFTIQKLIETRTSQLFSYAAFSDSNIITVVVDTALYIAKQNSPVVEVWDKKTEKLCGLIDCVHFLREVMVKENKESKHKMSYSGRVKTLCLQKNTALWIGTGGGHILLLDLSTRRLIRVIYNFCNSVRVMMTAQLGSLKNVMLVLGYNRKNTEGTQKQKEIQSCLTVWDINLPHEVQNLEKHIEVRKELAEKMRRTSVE

| Structure (SMILES) | IC50 [nM] |
| --- | --- |
| CCc1nc(C)cc(-n2ncc3ccc([C@]4(C#N)CC45CC5)cc32)n1 [Example 4.27] | 3.2 |
| CC(C)(O)C12CC(C1)N(c1cc(-n3ncc4ccc([C@@]5(C#N)CC56CC6)cc43)ccn1)C2 [Example 6.1-2] | 5.3 |
| CC(C)(O)[C@@H]1CCN(c2cc(-n3ncc4ccc([C@@]5(C#N)CC56CC6)cc43)ccn2)C1 [Example 6.2-1] | 1.8 |
| CC(C)(O)[C@@H]1CCN(c2cc(-n3ncc4ccc([C@]5(C#N)CC56CC6)cc43)ccn2)C1 [Example 6.2-2] | 0.9 |
| CC(C)(O)C12CC(C1)N(c1cc(-n3ncc4ccc([C@]5(C#N)CC56CC6)cc43)cc(F)n1)C2 [Example 6.3] | 15 |
| C[C@H]1CN(c2cc(-n3ncc4ccc([C@]5(C#N)CC56CC6)cc43)cc(F)n2)CCN1C1COC1 [Example 6.4] | 6.8 |
| C[C@H]1CN(c2cc(-n3ncc4ccc([C@]5(C#N)CC56CC6)cc43)ccn2)CCN1S(C)(=O)=O [Example 6.5] | 1.5 |
| CC(C)(O)C12CC(C1)N(c1cc(-n3ncc4ccc([C@]5(C#N)CC56CC6)cc43)nc(N3CCC3)n1)C2 [Example 8.5, (S)-1-(1-(2-(azetidin-1-yl)-6-(4-(2-hydroxypropan-2-yl)-2-azabicyclo[2.1.1]hexan-2-yl)pyrimidin-4-yl)-1H-indazol-6-yl)spiro[2.2]pentane-1-carbonitrile] | 9.8 |
| Cc1nc(N2CCN(C3(C)COC3)CC2)cc(-n2ncc3ccc([C@]4(C#N)CC45CC5)cc32)n1 [Example 11.1, (S)-1-(1-(2-methyl-6-(4-(3-methyloxetan-3-yl)piperazin-1-yl)pyrimidin-4-yl)-1H-indazol-6-yl)spiro[2.2]pentane-1-carbonitrile] | 0.6 |
| Cc1nc(N2CC3(C2)CN(C2COC2)C3)cc(-n2ncc3ccc([C@]4(C#N)CC45CC5)cc32)n1 [Example 11.3] | 454 |
| Cc1nc(N2C[C@@H]3C[C@H]2CN3C2(C)COC2)cc(-n2ncc3ccc([C@]4(C#N)CC45CC5)cc32)n1 [Example 11.4] | 8.6 |
| Cc1cc(-n2ncc3ccc([C@]4(C#N)CC45CC5)cc32)cc(C)n1 [Example 11.5] | 7.8 |
| Cc1cc(-n2ncc3ccc([C@]4(C#N)CC45CC5)cc32)ncn1 [Example 11.7] | 7.4 |
| Cc1nc(N2CC3(CN(CC(F)(F)F)C3)C2)cc(-n2ncc3ccc(C4(C#N)CC45CC5)cc32)n1 (centres unmarked) [Example 12.2] | 28.4 |
